{"source": "patent US5336485A", "about": "“Method for protecting animals against tacrine induced cytotoxic injury using sterol compounds” (priority 1993, dated 1994)", "key": {"[1]": {"system": "canine hepatocytes", "assay": "EMS-induced cytotoxicity in canine hepatocytes", "format": "cell-based", "details": "25 μM, 50 mM EMS"}, "[2]": {"system": "rat hepatocytes", "assay": "Intracellular K+ of rat hepatocytes exposed to EMS", "format": "cell-based", "source_text": "Medzhradsky, Biochem. Med. 13:164 (1975), has noted that the cell's ability to maintain its intracellular concentration of potassium (K^+) is an excellent indicator of the metabolic integrity of the cell. A concentration gradient exists for K^+ with greater concentrations found intracellularly. To maintain this gradient, the cell is dependent on the action of the Na^+ -K^+ ATPase pump and an adequate supply of ATP. As cellular ATP levels decline, the ATPase pump is unable to maintain the gradient resulting in the loss of intracellular K^+ by equilibration with the extracellular space. Because the maintenance of cellular metabolic processes is essential to the continual repair and survival of cells, organ systems, and organisms, the effect of alpha-TS on the metabolic integrity of rat liver cells during a toxic insult was investigated by measuring intracellular K^+ levels. […] At each time-point, rapid separation of viable from non-viable hepatocytes and medium was accomplished by the dibutyl phthalate centrifugation method. Cell viability was monitored hourly by measuring LDH leakage with a Cobas Analyzer and intracellular [K^+ ]with a flame photometer. […] Lipid peroxidation was determined by measuring TBA reactants in the medium. […] Alltech, Avondale, Pa.). […] Following the addition of 0.2 ml 4 M HC1, the neutralized KOH-MeOH extracted with 0.8 ml hexane. […] A standard curve for each tocopherol congener was run with every assay. […] Only viable cells were monitored in the laboratory procedures."}, "[3]": {"system": "canine hepatocytes", "assay": "Intracellular K+ of canine hepatocytes exposed to EMS", "format": "cell-based", "details": "25 μM, 50 mM EMS", "source_text": "Medzhradsky, Biochem. Med. 13:164 (1975), has noted that the cell's ability to maintain its intracellular concentration of potassium (K^+) is an excellent indicator of the metabolic integrity of the cell. A concentration gradient exists for K^+ with greater concentrations found intracellularly. To maintain this gradient, the cell is dependent on the action of the Na^+ -K^+ ATPase pump and an adequate supply of ATP. As cellular ATP levels decline, the ATPase pump is unable to maintain the gradient resulting in the loss of intracellular K^+ by equilibration with the extracellular space. Because the maintenance of cellular metabolic processes is essential to the continual repair and survival of cells, organ systems, and organisms, the effect of alpha-TS on the metabolic integrity of rat liver cells during a toxic insult was investigated by measuring intracellular K^+ levels. FIGS. 2a-2b show the response of rat and canine hepatocytes, respectively, exposed to 50 mM EMS. […] The response curves shown in FIGS. 2a and 2b indicate that alpha-TS under physiological conditions can maintain the metabolic integrity of animal hepatocytes during a toxic insult.\nOnly viable cells were monitored in the laboratory procedures."}, "[4]": {"system": "epidermoid carcinomas", "details": "local administration; cited from earlier work"}, "[5]": {"system": "rat hepatocytes", "assay": "EMS-induced cytotoxicity (LDH leakage/cell death) in rat hepatocyte suspensions", "details": "for Protection From Toxic Injury: EMS 3 h; for inhibition at 25 µM: Rattus norvegicus, Hepatocyte"}, "[6]": {"system": "mouse neuroblastoma cells NBP2", "details": "10 μM; cited from earlier work"}, "[7]": {"system": "rat hepatocytes", "assay": "EMS-induced lipid peroxidation in rat hepatocyte suspensions", "format": "cell-based", "details": "50 mM EMS"}, "[8]": {"assay": "Blood alpha-TS content after oral dosing in humans", "format": "in vivo, human", "details": "400 units per day, one month, three males", "source_text": "In a one month study with three human males aging from 35 to 62 years 400 units of alpha-tocopheryl succinate were taken per day. Subsequent blood samples were taken from each individual and analyzed for alpha-T and alpha-TS content. […] However, in select individuals, as determined possibly by ethnic origin or diet, tissue alpha-TS accumulation can occur with oral dosing. The absence of alpha-TS hydrolysis in the gut of the one individual in the study who had substantial amounts of alpha-TS in plasma may be attributed to the absence of duodenal secretions after oral alpha-TS administration (lack of dietary fats to stimulate duodenal secretions at the time of alpha-TS administration)."}, "[9]": {"system": "rat hepatocytes", "details": "cited from earlier work"}, "[10]": {"details": "50 mM EMS + 25 μM alpha-TS + 100 μM Bis-(p-nitrophenyl) phosphate"}, "[11]": {"details": "50 mM EMS + 25 μM alpha-TS + 100 μM Diethyl p-nitrophenyl phosphate"}, "[12]": {"details": "rat hepatocytes, 25 μM, 50 mM EMS"}}, "data": [{"smiles": "Cc1c(C)c2c(c(C)c1OC(=O)CCC(=O)O)CC[C@@](C)(CCC[C@H](C)CCC[C@H](C)CCCC(C)C)O2", "note": "[alpha-TS, d-alpha-tocopheryl succinate]", "values": [{"measurement": "protection from lethal effects of EMS", "setting": "[1]", "result": "protected both rat and canine hepatocytes from the lethal effects"}, {"measurement": "% Initial Intracellular [K+]", "setting": "[2]; 50 mM EMS + 25 μM alpha-TS", "result": "93 ± 11", "unit": "% Initial"}, {"measurement": "% Initial Intracellular [K+]", "setting": "[2]; [10]", "result": "14 ± 6", "unit": "% Initial"}, {"measurement": "% Initial Intracellular [K+]", "setting": "[2]; [11]", "result": "26 ± 2", "unit": "% Initial"}, {"measurement": "% Initial Intracellular [K+]", "setting": "[2]; 50 mM EMS, 5 Hrs, concentrations as cell death (Table 15)", "result": "86 ± 6", "unit": "% Initial"}, {"measurement": "intracellular K+ during EMS insult", "setting": "[2]; [12]", "result": "no loss of intracellular K+"}, {"measurement": "intracellular K+ during EMS insult", "setting": "[3]", "result": "no loss of intracellular K+"}, {"measurement": "tumor regression", "setting": "[4]", "result": "dramatic regression"}, {"measurement": "protection against loss of viability", "setting": "[5]; 0.5 μM, EMS", "result": 85, "unit": "%"}, {"measurement": "protection against loss of viability and metabolic performance", "setting": "[5]; 2 μM, EMS", "result": 100, "unit": "%"}, {"measurement": "Protection From Toxic Injury", "setting": "[5]; 2.0 μM", "result": "Yes"}, {"measurement": "Protection From Toxic Injury", "setting": "[5]; 10 μM", "result": "Yes"}, {"measurement": "Protection From Toxic Injury", "setting": "[5]; 25 μM", "result": "Yes"}, {"measurement": "Protection From Toxic Injury", "setting": "[5]; 250 μM", "result": "Yes"}, {"measurement": "Cell Death", "setting": "[5]; 50 mM EMS + 25 μM alpha-TS", "result": "30 ± 7", "unit": "%"}, {"measurement": "Cell Death", "setting": "[5]; [10]", "result": "52 ± 3", "unit": "%"}, {"measurement": "Cell Death", "setting": "[5]; [11]", "result": "58 ± 8", "unit": "%"}, {"measurement": "Cell Death", "setting": "[5]; 50 mM EMS, 5 Hrs, alpha-TS 25, methyl ester 50, cholesteryl succinate 100, monomethyl/dimethyl succinate 250 μM", "result": "27 ± 1", "unit": "%"}, {"measurement": "Protection From Toxic Injury", "setting": "[5]; .5 μM", "result": "Yes"}, {"measurement": "% Cell Death", "setting": "[5]; EMS 50 mM, 25 μM alpha-TS (no alpha-TS 68)", "result": 25, "unit": "%"}, {"measurement": "inhibition at 25 µM", "setting": "[5]; 5 h, read-out: Percent Cytoprotection, 25 μM, 50 mM EMS, 5 h", "result": "92 ± 3", "unit": "%"}, {"measurement": "inhibition at 25 µM", "setting": "[5]; read-out: % Protection, 25 μM, 50 mM EMS", "result": 100, "unit": "%"}, {"measurement": "protection from lethal effects of EMS", "setting": "[5]; [12]", "result": "protected both rat and canine hepatocytes from the lethal effects"}, {"measurement": "tumor cell growth", "setting": "[6]", "result": "inhibits tumor cell growth"}, {"measurement": "Lipid Peroxidation", "setting": "[7]; 5 Hrs, concentrations as cell death (Table 15)", "result": 0.9, "unit": "nmolMDA/10^6 cells"}, {"measurement": "inhibition at 25 µM", "setting": "[7]; Rattus norvegicus, Hepatocyte, 25 μM", "result": 100, "unit": "%"}, {"measurement": "alpha-TS in plasma and erythrocytes", "setting": "[8]", "result": "Substantial amounts of alpha-TS in plasma and erythrocytes were observed for only one individual"}, {"measurement": "cytoprotective effect at 3.5 mM Ca2+", "setting": "[9]; 3.5 mM Ca2+", "result": "eliminated the cytoprotective effect"}, {"measurement": "protection of rat hepatocytes from toxic effects of drugs", "setting": "[9]; Ca2+ free medium", "result": "protected from the toxic effects of drugs"}]}]}
